Measured values reported in patent publication US8916570B2 (The United States of America, as represented by the …, priority 2008, dated 2014).
Where two headings read alike, the source gives them in different places. Marks after values point to notes of the source that are not given here.

What was measured:
[1] = molecular target: T1, hA1AR (Homo sapiens, UniProt P30542); test: Binding at hA1AR, CHO membranes (Example 7); details: read-out: % inhibition hA1
T1 construct: expressed in transfected cells; host or cells: CHO
T1 sequence (P30542 1-326): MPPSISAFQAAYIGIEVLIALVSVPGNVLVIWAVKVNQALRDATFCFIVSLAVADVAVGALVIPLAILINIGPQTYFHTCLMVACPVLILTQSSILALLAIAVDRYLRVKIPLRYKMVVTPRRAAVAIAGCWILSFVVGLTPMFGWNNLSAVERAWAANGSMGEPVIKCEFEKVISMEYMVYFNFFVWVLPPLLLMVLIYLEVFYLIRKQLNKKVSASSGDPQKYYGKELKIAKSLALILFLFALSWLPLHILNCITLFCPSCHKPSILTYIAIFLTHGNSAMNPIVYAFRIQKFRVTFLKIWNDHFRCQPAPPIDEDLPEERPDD
Protocol: (§1) CHO cells stably expressing the recombinant hA1, hA3, and rA3Rs, and HEK-293 cells stably expressing the hA2AAR were cultured in Dulbecco's modified Eagle medium (DMEM) and F12 (1:1) supplemented with 10% fetal bovine serum, 100 units/mL penicillin, 100 μg/mL streptomycin, and 2 μmol/mL glutamine. In addition, 800 μg/mL geneticin was added to the A2A media, while 500 μg/mL hygromycin was added to the A1 and A3 media. After harvesting, cells were homogenized and suspended in PBS. Cells were then centrifuged at 240 g for 5 min, and the pellet was resuspended in 50 mM Tris-HCl buffer (pH 7.5) containing 10 mM MgCl2. The suspension was homogenized and was then ultra-centrifuged at 14,330 g for 30 min at 4° C. […] The protein concentration was measured using the BCA Protein Assay Kit from Pierce Biotechnology, Inc. (Rockford, Ill.).
(§2) Into each tube in the binding assay was added 50 μL of increasing concentrations of the test ligand in Tris-HCl buffer (50 mM, pH 7.5) containing 10 mM MgCl2, 50 μL of the appropriate agonist radioligand, and finally 100 μL of membrane suspension. […] For the A2AAR (20 μg/tube) the radioligand used was [^3H]53 (10 nM). […] Nonspecific binding was determined using a final concentration of 10 μM 51 diluted with the buffer. The mixtures were incubated at 25° C. for 60 min in a shaking water bath. Binding reactions were terminated by filtration through Brandel GF/B filters under a reduced pressure using a M-24 cell harvester (Brandel, Gaithersburg, Md.). Filters were washed three times with 3 mL of 50 mM ice-cold Tris-HCl buffer (pH 7.5). […] Filters for A3AR binding were counted using a Packard COBRA™ II γ-counter. The Ki values were determined using GraphPad Prism for all assays.

[2] = molecular target: T2, hA2AAR (Homo sapiens, UniProt P29274); test: Binding at hA2AAR, HEK-293 membranes (Example 7); details: read-out: % inhibition hA2A
T2 construct: expressed in transfected cells
T2 sequence (P29274 whole entry): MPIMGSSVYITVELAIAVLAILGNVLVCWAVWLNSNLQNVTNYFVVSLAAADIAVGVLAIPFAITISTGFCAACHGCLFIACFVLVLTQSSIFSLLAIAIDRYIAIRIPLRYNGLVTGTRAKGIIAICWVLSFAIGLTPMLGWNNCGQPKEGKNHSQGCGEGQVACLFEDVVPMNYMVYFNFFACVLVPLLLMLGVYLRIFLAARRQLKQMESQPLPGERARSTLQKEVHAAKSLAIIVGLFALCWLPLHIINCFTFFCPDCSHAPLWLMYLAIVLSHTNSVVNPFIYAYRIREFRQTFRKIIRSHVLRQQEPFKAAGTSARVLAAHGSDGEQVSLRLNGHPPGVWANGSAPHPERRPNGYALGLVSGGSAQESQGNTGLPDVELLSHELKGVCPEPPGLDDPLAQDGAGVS
Protocol: After harvesting, cells were homogenized and suspended in PBS.
Nonspecific binding was determined using a final concentration of 10 μM 51 diluted with the buffer.

[3] = molecular target: T3, mA1AR (Mus musculus, UniProt Q60612); test: Competition binding at mA1AR, HEK293 membranes (Example 8); details: percent in parentheses, concentration not given
T3 construct: expressed in transfected cells
T3 sequence (Q60612 1-326): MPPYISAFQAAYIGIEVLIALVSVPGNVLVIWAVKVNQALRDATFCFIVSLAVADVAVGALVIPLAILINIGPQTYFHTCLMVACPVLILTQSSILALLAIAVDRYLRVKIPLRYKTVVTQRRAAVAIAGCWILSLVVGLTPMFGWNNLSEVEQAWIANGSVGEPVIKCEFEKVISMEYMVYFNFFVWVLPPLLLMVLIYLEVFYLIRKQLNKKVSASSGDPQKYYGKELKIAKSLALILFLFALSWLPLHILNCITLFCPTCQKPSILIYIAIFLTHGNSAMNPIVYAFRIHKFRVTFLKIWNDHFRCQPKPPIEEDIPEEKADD

[4] = molecular target: T4, mA3AR (Mus musculus, UniProt Q61618); test: Competition binding at mA3AR, HEK293 membranes (Example 8); details: read-out: Affinity (Ki, nM) mA3
T4 construct: expressed in transfected cells
T4 sequence (Q61618 1-319): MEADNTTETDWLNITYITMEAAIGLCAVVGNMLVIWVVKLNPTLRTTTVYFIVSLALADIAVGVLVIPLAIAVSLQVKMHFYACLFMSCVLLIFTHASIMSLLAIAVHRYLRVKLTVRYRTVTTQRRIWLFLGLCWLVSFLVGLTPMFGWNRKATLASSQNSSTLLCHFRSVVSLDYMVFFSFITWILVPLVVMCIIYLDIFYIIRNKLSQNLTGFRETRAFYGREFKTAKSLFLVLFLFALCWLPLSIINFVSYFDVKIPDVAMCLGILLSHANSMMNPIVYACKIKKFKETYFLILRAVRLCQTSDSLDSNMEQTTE

[5] = molecular target: T5, human A3AR (Homo sapiens, UniProt P0DMS8); test: Inhibition of forskolin-stimulated cyclic AMP production in AR transfected CHO cells (Table 1); type: cell-based; details: CHO; read-out: % Efficacy at the human A3 AR
T5 construct: expressed in transfected cells; host or cells: CHO
T5 sequence (P0DMS8 1-318): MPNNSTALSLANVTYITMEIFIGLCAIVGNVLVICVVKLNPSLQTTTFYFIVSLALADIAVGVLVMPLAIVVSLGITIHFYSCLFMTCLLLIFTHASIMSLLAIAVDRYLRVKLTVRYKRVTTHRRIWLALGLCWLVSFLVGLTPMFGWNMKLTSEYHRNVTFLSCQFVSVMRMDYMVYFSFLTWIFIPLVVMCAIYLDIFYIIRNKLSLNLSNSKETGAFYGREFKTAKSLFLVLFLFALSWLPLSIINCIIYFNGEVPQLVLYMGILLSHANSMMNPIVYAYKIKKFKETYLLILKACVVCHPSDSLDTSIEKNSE

[6] = molecular target: T6, human A2A adenosine receptor (Homo sapiens, UniProt P29274); test: Radioligand binding, human A2A AR (Table 1)
T6 sequence (P29274 whole entry): as the sequence (P29274 whole entry) above

[7] = molecular target: T7, human A1 adenosine receptor (Homo sapiens, UniProt P30542); test: Radioligand binding, human A1 AR, CHO membranes (Table 1); details: for A1 % inhib.: species H (human), percent in parentheses, concentration not marked
T7 sequence (P30542 1-326): T1 sequence (P30542 1-326)

[8] = molecular target: T8, human A3 adenosine receptor (Homo sapiens, UniProt P0DMS8); test: [125I]I-AB-MECA binding, human A3 AR, CHO membranes (Table 1); details: for Ki: A3 Ki, species H (human)
T8 sequence (P0DMS8 1-318): T5 sequence (P0DMS8 1-318)

[9] = molecular target: T9, hA3AR (Homo sapiens, UniProt P0DMS8); test: Binding at hA3AR, CHO membranes (Example 7); details: read-out: Affinity (Ki, nM) hA3
T9 construct: expressed in transfected cells; host or cells: CHO
T9 sequence (P0DMS8 1-318): T5 sequence (P0DMS8 1-318)
Protocol: as §1, §2

[10] = molecular target: T2, hA2AAR; details: inhibition of radioligand binding at 10 μM; values from the literature; cited from earlier work
[11] = molecular target: T10, mA2AAR (Mus musculus, UniProt Q60613); details: values from Melman et al.; concentration not defined (mark ^1); cited from earlier work
T10 construct: expressed in transfected cells
T10 sequence (Q60613 whole entry): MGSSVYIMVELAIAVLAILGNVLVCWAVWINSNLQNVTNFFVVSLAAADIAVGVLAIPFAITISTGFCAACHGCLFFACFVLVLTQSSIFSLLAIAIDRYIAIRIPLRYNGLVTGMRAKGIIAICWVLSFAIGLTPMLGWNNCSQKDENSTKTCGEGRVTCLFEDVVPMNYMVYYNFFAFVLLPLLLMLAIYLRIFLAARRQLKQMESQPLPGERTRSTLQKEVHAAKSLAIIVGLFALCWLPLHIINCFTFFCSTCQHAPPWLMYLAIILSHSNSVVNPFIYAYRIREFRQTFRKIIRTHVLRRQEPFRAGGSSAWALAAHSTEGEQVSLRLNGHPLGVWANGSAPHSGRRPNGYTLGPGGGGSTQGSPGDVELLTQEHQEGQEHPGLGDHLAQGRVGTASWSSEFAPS

[12] = molecular target: mouse A2A adenosine receptor (Mus musculus, UniProt Q60613); test: Competition radioligand binding, mouse A2A AR, HEK293 membranes (Table 1)
Sequence of mouse A2A adenosine receptor (Q60613 whole entry): as above

[13] = molecular target: T6, human A2A adenosine receptor; design: expressed in transfected cells; details: species H (human); percent inhibition at 10 μM; data from Tchilibon et al.; cited from earlier work

SMILES	inhibition at 10 µM [1]	inhibition at 10 µM [2]	% inhibition mA1 [3]	Ki [4]	Emax at 10 µM [5]	Ki [9]	other results
CNC(=O)[C@@]12C[C@@H]1[C@@H](n1cnc3c(NCc4cccc(Cl)c4)nc(C#Cc4ccccc4)nc31)[C@H](O)[C@@H]2O [Compound 327, (1S,2R,3S,4R,5S)-4-(6-(3-Chlorobenzylamino)-2-(phenylethynyl)-9H-purin-9-yl)-2,3-dihydroxy-N-methylbicyclo[3.1.0]hexane-1-carboxamide]	18%	27%	(41%)	16 nM	–	–	–
CNC(=O)C12CC1C(n1cnc3c(NC4CCCC4)nc(Cl)nc31)C(O)C2O (stereo not shown) [Compound 32]	–	–	–	–	101%	–	Ki [6]: 3250 ± 300 nM; Ki [7]: 18.3 ± 6.3 nM
CNC(=O)C12CC1C(n1cnc3c(NCc4cccc(Cl)c4)nc(C#CCCC(=O)NCCNC(=O)CCCCCNC(=O)CCCCC4SCC5NC(=O)NC54)nc31)C(O)C2O (stereo not drawn) [Compound 43, (1′S,2′R,3′S,4′S,5′S)-4′-[6-(3-Chlorobenzylamino)-2-(N-biotinyl {5-aminopentanyl}(β-aminoethylaminocarbonyl)-1-butynyl)-9-yl]-2′,3′-dihydroxybicyclo[3.1.0]hexane-1′-carboxylic acid N-methylamide]	–	–	–	–	106 ± 17.7%	–	A1 % inhib. [7]: (8 ± 4%); Ki [8]: 57.7 ± 16.2 nM
CNC(=O)C12CC1C(n1cnc3c(NCc4cccc(Cl)c4)nc(C#CCCCCC(=O)OC)nc31)C(O)C2O (stereo not shown) [Compound 36]	–	–	–	–	90 ± 6.2%	–	Ki [6]: 3540 ± 1370 nM; A1 % inhib. [7]: (21 ± 8%); Ki [8]: 11.1 ± 2.3 nM
CNC(=O)[C@@]12C[C@@H]1[C@@H](n1cnc3c(NCc4cccc(Cl)c4)nc(C#Cc4ccccc4Cl)nc31)[C@H](O)[C@@H]2O [Compound 329, (1S,2R,3S,4R,5S)-4-(6-(3-Chlorobenzylamino)-2-((2-chlorophenyl)ethynyl)-9H-purin-9-yl)-2,3-dihydroxy-N-methylbicyclo[3.1.0]hexane-1-carboxamide]	20%	52%	(36%)	7.5 nM	–	1.92 ± 0.57 nM	–
CNC(=O)[C@@]12C[C@@H]1[C@@H](n1cnc3c(NCc4cccc(Cl)c4)nc(C#Cc4ccc(-c5ccccc5)cc4)nc31)[C@H](O)[C@@H]2O [Compound 335, (1S,2R,3S,4R,5S)-4-(2-(Biphenyl-4-ylethynyl)-6-(3-chlorobenzylamino)-9H-purin-9-yl)-2,3-dihydroxy-N-methylbicyclo[3.1.0]hexane-1-carboxamide]	–	0%	(28%)	22 nM	–	3.06 ± 1.35 nM	–
CCCC#Cc1nc(NCc2cccc(Cl)c2)c2ncn([C@@H]3[C@H](O)[C@H](O)[C@]4(C(=O)NC)C[C@H]34)c2n1 [Compound 5, (1′S,2′R,3′S,4′S,5′S)-4′-[6-(3-Chlorobenzylamino)-2-(1-pentynyl)-9-yl]-2′,3′-dihydroxybicyclo[3.1.0]hexane-1′-carboxylic acid N-methylamide]	–	–	–	–	–	–	% inhibition hA2A [10]: (80%); % inhibition mA2A [11]: (42%)^1; A2A % inhib. ([6]; species H (human), percent inhibition at 10 μM): (80%)^f; A2A % inhib. ([12]; species M (mouse), percent inhibition at 100 μM): (42%)^i
CNC(=O)C12CC1C(n1cnc3c(NCc4cccc(Cl)c4)nc(C#CCCC(=O)OC)nc31)C(O)C2O (stereo not shown) [Compound 35]	–	–	–	–	74.4 ± 5.1%	–	A1 % inhib. [7]: (19 ± 3%); Ki [8]: 5.5 ± 0.3 nM
CNC(=O)[C@@]12C[C@@H]1[C@@H](n1cnc3c(NC)nc(C#Cc4ccc(F)cc4)nc31)[C@H](O)[C@@H]2O [Compound 313, (1S,2R,3S,4R,5S)-4-(2-((4-Fluorophenyl)ethynyl)-6-(methylamino)-9H-purin-9-yl)-2,3-dihydroxy-N-methylbicyclo[3.1.0]hexane-1-carboxamide]	27%	19%	(25%)	66 nM	–	0.53 ± 0.09 nM	–
CNC(=O)[C@@]12C[C@@H]1[C@@H](n1cnc3c(NCc4cccc(Cl)c4)nc(C#Cc4ccc(N)cc4)nc31)[C@H](O)[C@@H]2O [Compound 332a, (1S,2R,3S,4R,5S)-4-(2-((4-Aminophenyl)ethynyl)-6-(3-chlorobenzylamino)-9H-purin-9-yl)-2,3-dihydroxy-N-methylbicyclo[3.1.0]hexane-1-carboxamide]	2%	44%	(93%)	17 nM	–	2.27 ± 0.7 nM	–
CNC(=O)C12CC1C(n1cnc3c(NCc4cccc(C#CCO)c4)nc(Cl)nc31)C(O)C2O (stereo not shown) [Compound 16]	–	–	–	–	–	–	A2A % inhib. [13]: (56%)^f; inhibition at 100 µM ([12]; read-out: A2A % inhib.): 11%
CNC(=O)[C@@]12C[C@@H]1[C@@H](n1cnc3c(NC)nc(C#Cc4ccccc4Cl)nc31)[C@H](O)[C@@H]2O [Compound 314, (1S,2R,3S,4R,5S)-4-(2-((2-Chlorophenyl)ethynyl)-6-(methylamino)-9H-purin-9-yl)-2,3-dihydroxy-N-methylbicyclo[3.1.0]hexane-1-carboxamide]	22%	30%	(45%)	55 nM	–	0.58 ± 0.04 nM	–
CNC(=O)C12CC1C(n1cnc3c(NCc4cccc(Cl)c4)nc(C#CCCC(=O)NCCCCN)nc31)C(O)C2O (stereo not drawn) [Compound 40, (1′S, 2′R, 3′S, 4′S, 5′S)-4′-[6-(3-Chlorobenzylamino)-2-(4-(β-aminobutylaminocarbonyl)-1-butynyl)-9-yl]-2′,3′-dihydroxybicyclo[3.1.0]hexane-1′-carboxylic acid N-methylamide]	–	–	–	–	102 ± 13%	–	Ki [6]: 766 ± 109 nM; Ki [8]: 2.1 ± 0.4 nM; Selectivity A1/A3 ([8]; human): up to 1900
CNC(=O)[C@@]12C[C@@H]1[C@@H](n1cnc3c(NCc4cccc(Cl)c4)nc(C#Cc4ccc(F)cc4)nc31)[C@H](O)[C@@H]2O [Compound 328, (1S,2R,3S,4R,5S)-4-(6-(3-Chlorobenzylamino)-2-((4-fluorophenyl)ethynyl)-9H-purin-9-yl)-2,3-dihydroxy-N-methylbicyclo[3.1.0]hexane-1-carboxamide]	19%	42%	(39%)	7.5 nM	–	–	–
